Results published in ChEMBL document CHEMBL4425100, “Design, Synthesis, and Evaluation of in Vitro and in Vivo Anticancer Activity of 4-Substituted Coumarins: A Novel Class of Potent Tubulin Polymerization Inhibitors” (J Med Chem, 2016).
Where a name gives a salt, the structure may show the parent alone. The source made the active and inactive calls. The rule behind the calls is not given here.

Assays:
[1] = Solubility of the compound in […] ethanol/[…] Tween-80 at 1 mg; type: physicochemical
SK-OV-3 = test: Antiproliferative activity against human SKOV3 cells after 24 hrs by MTT assay; type: functional, cell-based; settings: SK-OV-3, 24 h
HCT-116 = test: Antiproliferative activity against human HCT116 cells after 24 hrs by MTT assay; type: functional, cell-based; settings: HCT-116, 24 h
HepG2 = test: cells; settings: Homo sapiens, HepG2, 24 h
Description: Antiproliferative activity against human HepG2 cells after 24 hrs by MTT assay

HCT-8 [2] = test: Cytotoxicity against vinblastine resistant/P-gp overexpressing human HCT8 cells assessed as reduction in cell growth after 24 hrs by MTT assay; type: functional, cell-based; settings: HCT-8, 24 h
A2780/Taxol [3] = test: Cytotoxicity against beta-tubulin 3 overexpressing human A2780T cells assessed as reduction in cell growth after 24 hrs by MTT assay; type: functional, cell-based
MCF7 [4] = test: cells; settings: Homo sapiens, MCF7, 24 h
Description: Antiproliferative activity against human MCF7 cells after 24 hrs by MTT assay

NCI/ADR-RES [5] = test: Cytotoxicity against P-gp overexpressing human MCF7/ADR cells assessed as reduction in cell growth after 24 hrs by MTT assay; type: functional, cell-based
HCT-8 [6] = test: Antiproliferative activity against human HCT8 cells after 24 hrs by MTT assay; type: functional, cell-based; settings: HCT-8, 24 h
NCI/ADR-RES [7] = test: Antitumor activity against P-gp overexpressing human MCF7/ADR cells xenografted in mouse assessed as tumor growth inhibition at 4 mg/kg, iv qd administered every 2 days measured during compound dosing; type: functional; settings: 48 h, read-out: TGI
[8] = Toxicity in mouse xenografted with P-gp overexpressing human MCF7/ADR cells assessed as body weight loss at 4 mg/kg, iv qd administered every 2 days measured during compound dosing; type: organism-based; settings: in vivo, 48 h
Tubulin (Homo sapiens) [9] = target: T1, Tubulin (Homo sapiens) (UniProt P68371+Q9H4B7+P0DPH7+P68366+Q13509+Q71U36+P04350+Q3ZCM7+P07437+P68363+Q9BQE3+Q6PEY2+Q13885+Q9BVA1+Q9BUF5); test: Binding affinity to tubulin in human HepG2 cells assessed as induction of abnormal chromosomal aggregation at 100 nM after 16 to 24 hrs by DAPI staining-based immunofluorescence microscopy; type: cell-based
Tubulin (Homo sapiens) [10] = target: T1, Tubulin (Homo sapiens); test: Binding affinity to tubulin in human HepG2 cells assessed as inhibition of microtubule network formation in cytosol at 100 nM after 16 to 24 hrs by DAPI staining-based immunofluorescence microscopy; type: cell-based
Tubulin (Homo sapiens) [11] = target: T1, Tubulin (Homo sapiens); test: Binding affinity to microtubule in human HepG2 cells assessed as inhibition of spindle formation after 24 hrs by immunofluorescence staining-based confocal microscopy; type: cell-based
Tubulin (Sus scrofa) [12] = target: T2, Tubulin (Sus scrofa) (UniProt P02554+P02550); test: Inhibition of porcine brain tubulin polymerization preincubated for 5 mins followed by GTP addition measured every 2 mins by spectrophotometry
Tubulin (Homo sapiens) [13] = target: T1, Tubulin (Homo sapiens); test: Inhibition of microtubule polymerization in human HepG2 cells after 24 hrs by immunofluorescence staining-based confocal microscopy; type: cell-based
[14] = target: Tubulin beta (Homo sapiens) (UniProt P68371+Q9H4B7+Q13509+P04350+Q3ZCM7+P07437+Q13885+Q9BVA1+Q9BUF5+A6NNZ2); test: Competitive binding affinity to beta-tubulin in human HepG2 cells assessed as disappearance of EBI-protein adducts preincubated for 2 hrs followed by EBI addition measured after […] by Western blot analysis; type: cell-based
[15] = Toxicity in mouse xenografted with beta-tubulin 3 overexpressing human A2780T cells assessed as abnormal behavior at 30 mg/kg, iv qd administered once a week; type: organism-based; settings: in vivo
[16] = Toxicity in mouse xenografted with human MCF7 cells assessed as body weight loss at 24 mg/kg, iv qd administered once a week; type: organism-based; settings: in vivo
MCF7 [17] = test: Antitumor activity against human MCF7 cells xenografted in mouse assessed as tumor growth inhibition at 5 mg/kg, iv qd administered every 2 days measured during compound dosing; type: functional; settings: 48 h, read-out: TGI
A2780/Taxol [18] = test: Antitumor activity against beta-tubulin 3 overexpressing human A2780T cells xenografted in mouse assessed as tumor growth inhibition at 30 mg/kg, iv qd administered once a week; type: functional; settings: read-out: TGI
[19] = Toxicity in mouse xenografted with beta-tubulin 3 overexpressing human A2780T cells assessed as body weight loss at 30 mg/kg, iv qd administered once a week; type: organism-based; settings: in vivo
Tubulin (Homo sapiens) [20] = target: T1, Tubulin (Homo sapiens); test: Binding affinity to microtubule in human HepG2 cells assessed as bundling of microtubule fibers near nucleus at 300 nM after 24 hrs by immunofluorescence staining-based confocal microscopy; type: cell-based
[21] = Toxicity in mouse xenografted with human MCF7 cells assessed as body weight loss at 5 mg/kg, iv qd administered every 2 days measured during compound dosing; type: organism-based; settings: in vivo, 48 h
Tubulin (Sus scrofa) [22] = target: T2, Tubulin (Sus scrofa); test: Inhibition of porcine brain tubulin polymerization at 10 uM preincubated for 5 mins followed by GTP addition measured every 2 mins by spectrophotometry
[23] = Toxicity in mouse xenografted with human H460 cells assessed as mortality at 2.5 to 5 mg/kg, iv qd administered every 2 days measured daily during compound dosing; type: organism-based; settings: in vivo, 48 h
[24] = Toxicity in mouse allografted with mouse C26 cells assessed as mortality at 2.5 to 5 mg/kg, iv qd administered every 2 days measured daily during compound dosing; type: organism-based; settings: in vivo, 48 h
[25] = Toxicity in mouse xenografted with human H460 cells assessed as body weight loss at 2.5 to 5 mg/kg, iv qd administered every 2 days measured daily during compound dosing; type: organism-based; settings: in vivo, 48 h
[26] = Toxicity in mouse allografted with mouse C26 cells assessed as body weight loss at 2.5 to 5 mg/kg, iv qd administered every 2 days measured daily during compound dosing; type: organism-based; settings: in vivo, 48 h

T2 sequence (P02550 whole entry, looked up): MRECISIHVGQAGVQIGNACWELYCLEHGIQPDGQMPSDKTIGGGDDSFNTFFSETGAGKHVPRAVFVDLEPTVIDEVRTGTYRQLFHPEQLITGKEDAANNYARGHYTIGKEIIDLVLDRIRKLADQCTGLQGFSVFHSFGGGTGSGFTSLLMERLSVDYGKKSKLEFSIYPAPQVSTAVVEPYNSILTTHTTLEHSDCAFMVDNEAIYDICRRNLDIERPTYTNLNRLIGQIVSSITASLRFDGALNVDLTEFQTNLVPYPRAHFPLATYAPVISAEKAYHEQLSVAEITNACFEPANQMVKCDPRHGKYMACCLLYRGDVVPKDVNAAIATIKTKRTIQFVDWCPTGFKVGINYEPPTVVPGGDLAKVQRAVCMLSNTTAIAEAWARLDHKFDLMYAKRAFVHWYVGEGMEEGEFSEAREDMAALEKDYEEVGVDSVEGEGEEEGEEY
T2 sequence (P02554 whole entry, looked up): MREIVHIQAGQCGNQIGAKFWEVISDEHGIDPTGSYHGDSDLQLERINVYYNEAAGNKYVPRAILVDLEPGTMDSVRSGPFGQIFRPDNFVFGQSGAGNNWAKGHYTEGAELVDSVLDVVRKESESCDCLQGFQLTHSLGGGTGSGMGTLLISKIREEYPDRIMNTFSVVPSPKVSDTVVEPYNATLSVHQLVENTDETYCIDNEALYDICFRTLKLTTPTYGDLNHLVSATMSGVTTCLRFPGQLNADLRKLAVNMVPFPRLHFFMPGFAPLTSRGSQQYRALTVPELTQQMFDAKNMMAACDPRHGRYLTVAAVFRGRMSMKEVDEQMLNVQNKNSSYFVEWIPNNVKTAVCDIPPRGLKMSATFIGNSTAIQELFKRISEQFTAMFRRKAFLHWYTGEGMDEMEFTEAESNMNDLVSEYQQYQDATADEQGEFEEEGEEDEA

C=C(C)C(=O)Oc1cc(N(C)c2cc(=O)oc3ccccc23)ccc1OC
solubility [1]: Insoluble

COc1ccc(N(C)c2cc(=O)oc3ccccc23)cc1OCCN1CCOCC1
IC50 (SK-OV-3): > 5 µM
IC50 (HCT-116): > 5 µM
IC50 (HepG2): > 5 µM

CCC/C=C/C(=O)Oc1cc(N(C)c2cc(=O)oc3ccccc23)ccc1OC
solubility [1]: Insoluble

COc1ccc(N(C)c2cc(=O)oc3ccccc23)cc1OC(=O)C=C(C)C
solubility [1]: Insoluble

COc1ccc2c(N(C)c3ccc(OC)c(O)c3)cc(=O)oc2c1
solubility [1]: Insoluble

COc1ccc(N(C)c2cc(=O)oc3ccccc23)cc1OC(=O)CBr
solubility [1]: Insoluble

CCCCCCCCCC(=O)Nc1cc(N(C)c2cc(=O)oc3ccccc23)ccc1OC
solubility [1]: Insoluble

COc1ccc(N(C)c2cc(=O)oc3ccccc23)cc1N
solubility [1]: Insoluble

C=CC(=O)Oc1cc(N(C)c2cc(=O)oc3ccccc23)ccc1OC
solubility [1]: Insoluble

CCOC(=O)CCC(=O)Oc1cc(N(C)c2cc(=O)oc3ccccc23)ccc1OC
solubility [1]: Insoluble

COc1ccc(N(C)c2cc(=O)oc3ccccc23)cc1OC(C)=O
solubility [1]: Insoluble

CC[C@]1(O)C[C@@H]2CN(CCc3c([nH]c4ccccc34)[C@@](C(=O)OC)(c3cc4c(cc3OC)N(C)[C@H]3[C@@](O)(C(=O)OC)[C@H](OC(C)=O)[C@]5(CC)C=CCN6CC[C@]43[C@@H]65)C2)C1 [VINBLASTINE]
IC50 (HCT-8 [2]): 5.21 µM
IC50 (A2780/Taxol [3]): 6.9 µM
IC50 (MCF7 [4]): 0.0547 µM
IC50 (NCI/ADR-RES [5]): 5.85 µM
IC50 (HCT-8 [6]): 0.0148 µM

COc1ccc(N(C)c2cc(=O)oc3ccccc23)cc1O
solubility [1]: Insoluble

COc1ccc(N(C)c2cc(=O)oc3ccccc23)cc1OC(=O)C(C)(C)C
solubility [1]: Insoluble

COc1ccc(N(C)c2cc(=O)oc3ccccc23)cc1OC(=O)CC(C)(C)C
solubility [1]: Insoluble

COc1cccc2c1C(=O)c1c(O)c3c(c(O)c1C2=O)C[C@@](O)(C(=O)CO)C[C@@H]3O[C@H]1C[C@H](N)[C@H](O)[C@H](C)O1 [DOXORUBICIN HYDROCHLORIDE]
inhibition in vivo at 4 mg/kg (NCI/ADR-RES [7]): 33.3%
IC50 (NCI/ADR-RES [5]): 8.15 µM
Activity [8]: Toxic

CCCCCCCCCC(=O)Oc1cc(N(C)c2cc(=O)oc3ccccc23)ccc1OC
solubility [1]: Insoluble

CCC(=O)Oc1cc(N(C)c2cc(=O)oc3ccccc23)ccc1OC
solubility [1]: Insoluble

COC(=O)CCCC(=O)Nc1cc(N(C)c2cc(=O)oc3ccccc23)ccc1OC
Activity (Tubulin (Homo sapiens) [9]): Active
inhibition of microtubule network formation (active/inactive) (Tubulin (Homo sapiens) [10]): Active
solubility [1]: Soluble

COc1ccc(N(C)c2cc(=O)oc3ccccc23)cc1OC(=O)CCCCCl
Activity (Tubulin (Homo sapiens) [9]): Active
inhibition of microtubule network formation (active/inactive) (Tubulin (Homo sapiens) [10]): Active
solubility [1]: Soluble

CCOC(=O)CCC(=O)Nc1cc(N(C)c2cc(=O)oc3ccccc23)ccc1OC
solubility [1]: Insoluble

CCCCCC(=O)Nc1cc(N(C)c2cc(=O)oc3ccccc23)ccc1OC
solubility [1]: Insoluble

C=CCCC(=O)Oc1cc(N(C)c2cc(=O)oc3ccccc23)ccc1OC
solubility [1]: Insoluble

COc1ccc(N(C)c2cc(=O)oc3ccccc23)cc1OC(=O)CCl
solubility [1]: Insoluble

COc1ccc(N(C)c2cc(=O)oc3ccccc23)cc1NC(=O)CCCCCl
inhibition (Tubulin (Homo sapiens) [11]): Dose-dependent effect
Activity (Tubulin (Homo sapiens) [9]): Active
inhibition of microtubule network formation (active/inactive) (Tubulin (Homo sapiens) [10]): Active
inhibition (Tubulin (Sus scrofa) [12]): Dose-dependent effect
inhibition (Tubulin (Homo sapiens) [13]): Dose-dependent effect
Activity [14]: Dose-dependent effect
solubility [1]: Soluble

C/C=C/C(=O)Nc1cc(N(C)c2cc(=O)oc3ccccc23)ccc1OC
solubility [1]: Insoluble

COc1ccc(N(C)c2cc(=O)oc3ccccc23)cc1OC(=O)C1CC1
solubility [1]: Insoluble

CCCCC(=O)Oc1cc(N(C)c2cc(=O)oc3ccccc23)ccc1OC
solubility [1]: Insoluble

CC(=O)O[C@H]1C(=O)[C@@]2(C)[C@H]([C@H](OC(=O)c3ccccc3)[C@]3(O)C[C@H](OC(=O)[C@H](O)[C@@H](NC(=O)c4ccccc4)c4ccccc4)C(C)=C1C3(C)C)[C@]1(OC(C)=O)CO[C@@H]1C[C@@H]2O [PACLITAXEL]
Activity [15]: Toxic
IC50 (HCT-8 [2]): 0.189 µM
Activity [16]: Toxic
IC50 (A2780/Taxol [3]): 56.6 µM
inhibition in vivo at 5 mg/kg (MCF7 [17]): 59.2%
IC50 (NCI/ADR-RES [5]): 9.15 µM
inhibition in vivo at 30 mg/kg (A2780/Taxol [18]): 37.7%
Activity [19]: Toxic
Activity (Tubulin (Homo sapiens) [20]): Active
Activity [21]: Toxic

COc1ccc2c(-c3ccc(-c4ccc5c(c4)OCO5)s3)cc(=O)oc2c1
IC50 (SK-OV-3): > 5 µM
IC50 (HCT-116): > 5 µM
IC50 (HepG2): > 5 µM

CC/C=C(\C)C(=O)Oc1cc(N(C)c2cc(=O)oc3ccccc23)ccc1OC
Activity (Tubulin (Homo sapiens) [9]): Active
inhibition of microtubule network formation (active/inactive) (Tubulin (Homo sapiens) [10]): Active
solubility [1]: Soluble

C/C=C/C(=O)Oc1cc(N(C)c2cc(=O)oc3ccccc23)ccc1OC
Activity (Tubulin (Homo sapiens) [9]): Active
inhibition of microtubule network formation (active/inactive) (Tubulin (Homo sapiens) [10]): Active
solubility [1]: Soluble

C=CCCC(=O)Nc1cc(N(C)c2cc(=O)oc3ccccc23)ccc1OC
Activity (Tubulin (Homo sapiens) [9]): Active
inhibition of microtubule network formation (active/inactive) (Tubulin (Homo sapiens) [10]): Active
solubility [1]: Soluble

COC(=O)CCCC(=O)Oc1cc(N(C)c2cc(=O)oc3ccccc23)ccc1OC
Activity (Tubulin (Homo sapiens) [9]): Active
inhibition of microtubule network formation (active/inactive) (Tubulin (Homo sapiens) [10]): Active
solubility [1]: Soluble

CCCCCC(=O)Oc1cc(N(C)c2cc(=O)oc3ccccc23)ccc1OC
solubility [1]: Insoluble

COc1ccc(N(C)c2nc(C)nc3ccccc23)cc1 [VERUBULIN]
inhibition (Tubulin (Sus scrofa) [22]): Active
Activity [23]: Toxic
IC50 (SK-OV-3): 0.0032 µM
Activity [24]: Toxic
IC50 (HCT-116): 0.0043 µM
Activity [25]: Toxic
Activity [26]: Toxic
IC50 (HepG2): 0.0046 µM

COc1cc2c(c(OC)c1OC)-c1ccc(OC)c(=O)cc1[C@@H](NC(C)=O)CC2 [COLCHICINE]
IC50 (HCT-8 [2]): 2.43 µM
IC50 (SK-OV-3): 0.0519 µM
IC50 (A2780/Taxol [3]): 8.67 µM
IC50 (HepG2): 0.0428 µM

COc1ccc(-c2ccc(-c3cc(=O)oc4cc(OC)ccc34)s2)cc1
IC50 (SK-OV-3): > 5 µM
IC50 (HCT-116): > 5 µM
IC50 (HepG2): > 5 µM

CC/C=C(\C)C(=O)Nc1cc(N(C)c2cc(=O)oc3ccccc23)ccc1OC
solubility [1]: Insoluble
